For one data set, the system named is Smn protein. The experiment in a line: Smn protein assay in cultured cells (SMN HTRF). As to conditions: SMA patient fibroblast cells (GM03813), 48 hours; for EC1.5x for Smn protein expression: 7-point concentration curve, concentration producing 1.5 times Smn protein vs DMSO vehicle; for maximum fold (Fold) increase of Smn protein: 7-point concentration data, relative to vehicle control. Type of data set: cell-based, human. Put shortly: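 Smn protein measured by HTRF (anti-SMN d2/kryptate) in lysates of SMA patient fibroblasts after 48 h compound treatment, 7-point 3.16-fold dilutions, triplicates. The 665/620 nm ratio is blank-corrected to ΔF, then divided by the vehicle ΔF to give fold increase.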
For orientation: TR-FRET usually uses a lanthanide donor and a delayed reading to cut background.

Data set [1] deals with full length SMN2 minigene mRNA containing SMN2 exon 7. The experiment in a line: SMN2 minigene mRNA splicing RT-qPCR assay in cultured cells. Type of data set: cell-based, human. As to conditions: Homo sapiens, HEK293-H; HEK293H cells stably transfected with SMN2-A minigene, 24 hours, 7-point concentration curve; concentration giving 1.5-fold full length SMN2 mRNA vs vehicle; read-out: EC1.5x for production of full length SMN2 mRNA. The essentials: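 Read-out is minigene FL mRNA (exon 7 included) relative to vehicle, from efficiency-corrected ΔΔCt with GAPDH normalisation. Primers and probe span exon 7, exon 8 and luciferase, so endogenous SMN is not detected. Stable SMN2-A minigene HEK293H cells, 24 h compound exposure at 37 °C, 7-point curve in duplicate.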

Where only a bound is given, the exact number is not on record here.

The values below come from US9399649B2, “Compounds for treating spinal muscular atrophy” (PTC Therapeutics Inc., priority 2012, dated 2016).

Regarding `COc1ccc(-c2cc3ccc(N4CCN[C@@H](C)C4)cc3c(=O)o2)c(OC)c1` [Cpd 50, 3-(2,4-dimethoxyphenyl)-7-[(3S)-3-methylpiperazin-1-yl]-1H-isochromen-1-one], the melting point was 231 °C (dec.). In addition, in the data set on Smn protein, the “EC1.5x for Smn protein expression” value is “** (an EC1.5× between >1 μM, and ≦3 nM is indicated by two stars (**))”; the “maximum fold (Fold) increase of Smn protein” value (from here on “maximum fold (Fold) increase”) is “*** (a fold increase between >1.35 and ≦1.5 is indicated by three stars (***))”. In data set [1], the EC (1.5-fold) was not above 0.1 µM.
Compound `COc1ccc(-c2cc3ccc(N4CCN[C@@H](C)C4)cc3c(=O)o2)c(F)c1` [Cpd 45, 3-(2-fluoro-4-methoxyphenyl)-7-[(3S)-3-methylpiperazin-1-yl]-1H-isochromen-1-one] showed a melting point of 167 to 168 °C. Further, the “maximum fold (Fold) increase” value with Smn protein was “*** (a fold increase between >1.35 and ≦1.5 is indicated by three stars (***))”. The EC (1.5-fold) in data set [1] was 0.1 to 0.3 µM.
In the case of `CCOc1ccc(-c2cc3ccc(N4CCN[C@@H](C)C4)cc3c(=O)o2)cc1` [Cpd 42, 3-(4-ethoxyphenyl)-7-[(3S)-3-methylpiperazin-1-yl]-1H-isochromen-1-one], the melting point lay within 239 to 240 °C. Also, the “maximum fold (Fold) increase” value with Smn protein is “** (a fold increase between >1.2 and ≦1.35 is indicated by two stars (**))”. In addition, the EC (1.5-fold) in data set [1] lay within 0.1 to 0.3 µM.
With `Cc1cn2cc(-c3cc4ccc(C5=CCN(C6CCC6)CC5)cc4c(=O)o3)nc2c(C)n1` [Cpd 94, 7-(1-cyclobutyl-1,2,3,6-tetrahydropyridin-4-yl)-3-(6,8-dimethylimidazo[1,2-a]pyrazin-2-yl)-1H-isochromen-1-one], the melting point fell in the range of 252 to 254 °C. In the data set with Smn protein, the “EC1.5x for Smn protein expression” value was “*** (an EC1.5× between >0.3 nM and ≦1 nM is indicated by three stars (***))”; the “maximum fold (Fold) increase” value was “***** (a fold increase >1.65 is indicated by five stars (*****))”. Besides, the EC (1.5-fold) in data set [1] was not above 0.1 µM.
For `C[C@@H]1CN(c2ccc3cc(-c4ccc5c(c4)OCCO5)oc(=O)c3c2)C[C@H](C)N1` [Cpd 39, 3-(2,3-dihydro-1,4-benzodioxin-6-yl)-7-[(3R,5S)-3,5-dimethylpiperazin-1-yl]-1H-isochromen-1-one], the melting point lay in the range of 218 to 220 °C. In the data set on Smn protein, the “maximum fold (Fold) increase” value is given as “* (A maximum fold increase of ≦1.2 is indicated by one star (*))”. Moreover, the EC (1.5-fold) in data set [1] lay within 1 to 3 µM.
Turning to `CN1CCCN(c2ccc3cc(-c4nc5ccccc5s4)oc(=O)c3c2)CC1` [Cpd 11, 3-(1,3-benzothiazol-2-yl)-7-(4-methyl-1,4-diazepan-1-yl)-1H-isochromen-1-one], the melting point was in the range of 270 to 272 °C. Besides, the “maximum fold (Fold) increase” value with Smn protein is given as “* (A maximum fold increase of ≦1.2 is indicated by one star (*))”. The EC (1.5-fold) in data set [1] was 0.3 to 1 µM.
For `Cc1cn2cc(-c3cc4ccc(N5CCC(N(C)C)CC5)cc4c(=O)o3)nc2c(C)n1` [Cpd 124, 7-[4-(dimethylamino)piperidin-1-yl]-3-(6,8-dimethylimidazo[1,2-a]pyrazin-2-yl)-1H-isochromen-1-one], the melting point was in the range of 274 to 276 °C. Further, in the data set with Smn protein, the “EC1.5x for Smn protein expression” value is on record as “**** (an EC1.5×≦0.3 nM is indicated by four stars (****))”; the “maximum fold (Fold) increase” value is “**** (a fold increase between >1.5 and ≦1.65 is indicated by four stars (****))”. Moreover, in data set [1], the EC (1.5-fold) was not above 0.1 µM.
`COc1ccccc1-c1cc2ccc(N3CCN[C@@H](C)C3)cc2c(=O)o1` [Cpd 32, 3-(2-methoxyphenyl)-7-[(3S)-3-methylpiperazin-1-yl]-1H-isochromen-1-one] showed a melting point of 143 to 146 °C. Moreover, the “maximum fold (Fold) increase” value in the data set with Smn protein was “** (a fold increase between >1.2 and ≦1.35 is indicated by two stars (**))”. Besides, in data set [1], the EC (1.5-fold) lay in the range of 0.3 to 1 µM.
Take `CN1CCN(c2ccc3cc(-c4cn5ccccc5n4)oc(=O)c3c2)CC1` [Cpd 27, 3-(imidazo[1,2-a]pyridin-2-yl)-7-(4-methylpiperazin-1-yl)-1H-isochromen-1-one]: the melting point lay within 252 to 254 °C. Also, the “maximum fold (Fold) increase” value in the data set with Smn protein is reported as “* (A maximum fold increase of ≦1.2 is indicated by one star (*))”. Moreover, the EC (1.5-fold) in data set [1] lay within 3 to 30 µM.
In the case of `Cc1nc2ccc(-c3cc4ccc(N5CCN(C)CC5)cc4c(=O)o3)cc2s1` [Cpd 104, 3-(2-methyl-1,3-benzothiazol-6-yl)-7-(4-methylpiperazin-1-yl)-1H-isochromen-1-one], the melting point lay within 231 to 236 °C. Also, the “maximum fold (Fold) increase” value with Smn protein is “*** (a fold increase between >1.35 and ≦1.5 is indicated by three stars (***))”. The EC (1.5-fold) in data set [1] lay in the range of 0.1 to 0.3 µM.
As to `Cc1nc2cc(-c3cc4ccc(N5CCNCC5)cc4c(=O)o3)ccc2s1` [Cpd 106, 3-(2-methyl-1,3-benzothiazol-5-yl)-7-(piperazin-1-yl)-1H-isochromen-1-one], the melting point lay within 229 to 235 °C. Besides, the “maximum fold (Fold) increase” value in the data set with Smn protein is given as “* (A maximum fold increase of ≦1.2 is indicated by one star (*))”. Also, the EC (1.5-fold) in data set [1] fell in the range of 1 to 3 µM.
The compound `Cc1nc(Cl)cn2cc(-c3cc4ccc(N5CCN[C@@H](C)C5)cc4c(=O)o3)nc12` [Cpd 108, 3-(6-chloro-8-methylimidazo[1,2-a]pyrazin-2-yl)-7-[(3S)-3-methylpiperazin-1-yl]-1H-isochromen-1-one] displayed a melting point of 251 to 258 °C. In the data set with Smn protein, the “EC1.5x for Smn protein expression” value was “**** (an EC1.5×≦0.3 nM is indicated by four stars (****))” and the “maximum fold (Fold) increase” value is listed as “***** (a fold increase >1.65 is indicated by five stars (*****))”. Moreover, the EC (1.5-fold) in data set [1] was not above 0.1 µM.
`CN1CCN(c2ccc3cc(-c4ccc5c(c4)OCO5)oc(=O)c3c2)CC1` [Cpd 15, 3-(1,3-benzodioxol-5-yl)-7-(4-methylpiperazin-1-yl)-1H-isochromen-1-one] returned a melting point of 297 to 299 °C. The “maximum fold (Fold) increase” value with Smn protein is reported as “* (A maximum fold increase of ≦1.2 is indicated by one star (*))”. Besides, the EC (1.5-fold) in data set [1] lay in the range of 3 to 30 µM.
In turn, `C[C@H]1CN(c2ccc3cc(-c4cn5ccsc5n4)oc(=O)c3c2)CCN1` [Cpd 55, 3-(imidazo[2,1-b][1,3]thiazol-6-yl)-7-[(3S)-3-methylpiperazin-1-yl]-1H-isochromen-1-one] displayed a melting point of 340 to 342 °C. In addition, in the data set with Smn protein, the “maximum fold (Fold) increase” value was “** (a fold increase between >1.2 and ≦1.35 is indicated by two stars (**))”. The EC (1.5-fold) in data set [1] fell in the range of 0.1 to 0.3 µM.
Consider `C[C@@H]1CN(c2ccc3cc(-c4ccc5c(c4)OCCO5)oc(=O)c3c2)CCN1` [Cpd 37, 3-(2,3-dihydro-1,4-benzodioxin-6-yl)-7-[(3R)-3-methylpiperazin-1-yl]-1H-isochromen-1-one], for which the melting point was in the range of 175 to 177 °C. In addition, in the data set on Smn protein, the “maximum fold (Fold) increase” value is listed as “* (A maximum fold increase of ≦1.2 is indicated by one star (*))”. In addition, the EC (1.5-fold) in data set [1] fell in the range of 1 to 3 µM.
Regarding `Cc1cn2cc(-c3cc4ccc(N5CCN6CCC[C@@H]6C5)cc4c(=O)o3)nc2cn1` [Cpd 68, 7-[(8aR)-hexahydropyrrolo[1,2-a]pyrazin-2(1H)-yl]-3-(6-methylimidazo[1,2-a]pyrazin-2-yl)-1H-isochromen-1-one], the melting point lay within 255 to 257 °C. In the data set on Smn protein, the “EC1.5x for Smn protein expression” value was “* (An EC1.5× for Smn protein expression between >3 μM and <10 μM is indicated by one star (*))”; the “maximum fold (Fold) increase” value is “**** (a fold increase between >1.5 and ≦1.65 is indicated by four stars (****))”. Moreover, in data set [1], the EC (1.5-fold) was not above 0.1 µM.
The compound `COc1c(F)cc(-c2cc3ccc(N4CCN[C@@H](C)C4)cc3c(=O)o2)cc1F` [Cpd 49, 3-(3,5-difluoro-4-methoxyphenyl)-7-[(3S)-3-methylpiperazin-1-yl]-1H-isochromen-1-one] displayed a melting point of 170 to 173 °C. Moreover, the “maximum fold (Fold) increase” value in the data set on Smn protein is “* (A maximum fold increase of ≦1.2 is indicated by one star (*))”. In addition, the EC (1.5-fold) in data set [1] was in the range of 3 to 30 µM.
In the same order, the values of `COc1ccccc1-c1cc2ccc(N3CCN(C)CC3)cc2c(=O)o1` [Cpd 22, 3-(2-methoxyphenyl)-7-(4-methylpiperazin-1-yl)-1H-isochromen-1-one] are 118 to 120 °C, “* (A maximum fold increase of ≦1.2 is indicated by one star (*))” and 1 to 3 µM.
In turn, `Cc1cn2cc(-c3cc4ccc(C5=CCN(C(C)C)CC5)cc4c(=O)o3)nc2c(C)n1` [Cpd 91, 3-(6,8-dimethylimidazo[1,2-a]pyrazin-2-yl)-7-[1-(propan-2-yl)-1,2,3,6-tetrahydropyridin-4-yl]-1H-isochromen-1-one] gave a melting point of 259 to 261 °C. In the data set with Smn protein, the “EC1.5x for Smn protein expression” value is “*** (an EC1.5× between >0.3 nM and ≦1 nM is indicated by three stars (***))”; the “maximum fold (Fold) increase” value was “*** (a fold increase between >1.35 and ≦1.5 is indicated by three stars (***))”. Also, the EC (1.5-fold) in data set [1] is not above 0.1 µM.
With `O=c1oc(-c2ccc3c(c2)OCCO3)cc2ccc(N3CCNCC3)cc12` [Cpd 13, 3-(2,3-dihydro-1,4-benzodioxin-6-yl)-7-(piperazin-1-yl)-1H-isochromen-1-one], the melting point fell in the range of 253 to 255 °C. The “maximum fold (Fold) increase” value in the data set on Smn protein is recorded as “* (A maximum fold increase of ≦1.2 is indicated by one star (*))”. Moreover, the EC (1.5-fold) in data set [1] was 1 to 3 µM.

One may read the melting point as the temperature of the solid-liquid transition.
